# ± gives the expanded uncertainty stated by the source.
# Settings: Liquid; for speed of sound: Frequency=3 MHz, Pulse-echo method; for mass density: Vibrating tube method
structure (smiles),measurement,setting,value
CCOC(F)(C(F)(F)C(F)(F)C(F)(F)F)C(F)(C(F)(F)F)C(F)(F)F (stereo not drawn) [2-trifluoromethyl-3-ethoxydodecafluorohexane],speed of sound,"293.15 K, 100 kPa",673.7 ± 1.6 m/s
same,mass density,"293.15 K, 100 kPa",1630.2 ± 0.7 kg/m3
same,mass density,"293.15 K, 10000 kPa",1654 ± 0.9 kg/m3
same,speed of sound,"293.15 K, 20000 kPa",781.1 ± 1.7 m/s
same,mass density,"293.15 K, 20000 kPa",1674.8 ± 1.1 kg/m3
same,mass density,"293.15 K, 30000 kPa",1693.3 ± 1.3 kg/m3
same,speed of sound,"293.15 K, 40000 kPa",865.8 ± 1.9 m/s
same,mass density,"293.15 K, 40000 kPa",1709.8 ± 1.6 kg/m3
same,mass density,"293.15 K, 50000 kPa",1724.9 ± 1.9 kg/m3
same,speed of sound,"293.15 K, 60000 kPa",938.1 ± 2 m/s
same,mass density,"293.15 K, 60000 kPa",1738.8 ± 2.2 kg/m3
same,mass density,"293.15 K, 70000 kPa",1751.7 ± 2.5 kg/m3
same,speed of sound,"293.15 K, 80000 kPa",1001.8 ± 2.2 m/s
same,mass density,"293.15 K, 80000 kPa",1763.9 ± 2.9 kg/m3
same,mass density,"293.15 K, 90000 kPa",1775.4 ± 3.2 kg/m3
same,speed of sound,"293.15 K, 100000 kPa",1058 ± 2.3 m/s
same,mass density,"293.15 K, 100000 kPa",1786.2 ± 3.5 kg/m3
same,mass density,"293.15 K, 110000 kPa",1796.5 ± 3.9 kg/m3
same,mass density,"293.15 K, 120000 kPa",1806.3 ± 4.3 kg/m3
same,mass density,"293.15 K, 130000 kPa",1815.8 ± 4.6 kg/m3
same,mass density,"293.15 K, 140000 kPa",1824.9 ± 5 kg/m3
same,speed of sound,"303.15 K, 100 kPa",643.7 ± 1.5 m/s
same,mass density,"303.15 K, 100 kPa",1609.7 ± 0.7 kg/m3
same,mass density,"303.15 K, 10000 kPa",1635.5 ± 0.9 kg/m3
same,speed of sound,"303.15 K, 20000 kPa",755.3 ± 1.7 m/s
same,mass density,"303.15 K, 20000 kPa",1657.8 ± 1 kg/m3
same,mass density,"303.15 K, 30000 kPa",1677.3 ± 1.3 kg/m3
same,speed of sound,"303.15 K, 40000 kPa",842.8 ± 1.9 m/s
same,mass density,"303.15 K, 40000 kPa",1694.6 ± 1.5 kg/m3
same,mass density,"303.15 K, 50000 kPa",1710.4 ± 1.8 kg/m3
same,speed of sound,"303.15 K, 60000 kPa",916.9 ± 2 m/s
same,mass density,"303.15 K, 60000 kPa",1724.9 ± 2.2 kg/m3
same,mass density,"303.15 K, 70000 kPa",1738.4 ± 2.5 kg/m3
same,speed of sound,"303.15 K, 80000 kPa",981.3 ± 2.1 m/s
same,mass density,"303.15 K, 80000 kPa",1750.9 ± 2.8 kg/m3
same,mass density,"303.15 K, 90000 kPa",1762.8 ± 3.1 kg/m3
same,speed of sound,"303.15 K, 100000 kPa",1038.5 ± 2.2 m/s
same,mass density,"303.15 K, 100000 kPa",1773.9 ± 3.5 kg/m3
same,mass density,"303.15 K, 110000 kPa",1784.5 ± 3.8 kg/m3
same,mass density,"303.15 K, 120000 kPa",1794.5 ± 4.2 kg/m3
same,mass density,"303.15 K, 130000 kPa",1804.2 ± 4.6 kg/m3
same,mass density,"303.15 K, 140000 kPa",1813.4 ± 4.9 kg/m3
same,speed of sound,"313.15 K, 100 kPa",616.7 ± 1.5 m/s
same,mass density,"313.15 K, 100 kPa",1588.6 ± 0.7 kg/m3
same,mass density,"313.15 K, 10000 kPa",1616.6 ± 0.9 kg/m3
same,speed of sound,"313.15 K, 20000 kPa",732.2 ± 1.7 m/s
same,mass density,"313.15 K, 20000 kPa",1640.2 ± 1 kg/m3
same,mass density,"313.15 K, 30000 kPa",1660.7 ± 1.2 kg/m3
same,speed of sound,"313.15 K, 40000 kPa",822 ± 1.8 m/s
same,mass density,"313.15 K, 40000 kPa",1678.9 ± 1.5 kg/m3
same,mass density,"313.15 K, 50000 kPa",1695.4 ± 1.8 kg/m3
same,speed of sound,"313.15 K, 60000 kPa",897.4 ± 2 m/s
same,mass density,"313.15 K, 60000 kPa",1710.5 ± 2.1 kg/m3
same,mass density,"313.15 K, 70000 kPa",1724.6 ± 2.4 kg/m3
same,speed of sound,"313.15 K, 80000 kPa",963 ± 2.1 m/s
same,mass density,"313.15 K, 80000 kPa",1737.1 ± 2.8 kg/m3
same,mass density,"313.15 K, 90000 kPa",1749.7 ± 3.1 kg/m3
same,speed of sound,"313.15 K, 100000 kPa",1021.7 ± 2.2 m/s
same,mass density,"313.15 K, 100000 kPa",1761.2 ± 3.4 kg/m3
same,mass density,"313.15 K, 110000 kPa",1772.2 ± 3.8 kg/m3
same,mass density,"313.15 K, 120000 kPa",1782.5 ± 4.1 kg/m3
same,mass density,"313.15 K, 130000 kPa",1792.5 ± 4.5 kg/m3
same,mass density,"313.15 K, 140000 kPa",1802 ± 4.9 kg/m3
same,speed of sound,"323.15 K, 100 kPa",588.4 ± 1.4 m/s
same,mass density,"323.15 K, 100 kPa",1567.3 ± 0.7 kg/m3
same,mass density,"323.15 K, 10000 kPa",1597.6 ± 0.8 kg/m3
same,speed of sound,"323.15 K, 20000 kPa",709.6 ± 1.6 m/s
same,mass density,"323.15 K, 20000 kPa",1622.7 ± 1 kg/m3
same,mass density,"323.15 K, 30000 kPa",1644.3 ± 1.2 kg/m3
same,speed of sound,"323.15 K, 40000 kPa",802.1 ± 1.8 m/s
same,mass density,"323.15 K, 40000 kPa",1663.4 ± 1.5 kg/m3
same,mass density,"323.15 K, 50000 kPa",1680.6 ± 1.8 kg/m3
same,speed of sound,"323.15 K, 60000 kPa",878.6 ± 1.9 m/s
same,mass density,"323.15 K, 60000 kPa",1696.4 ± 2.1 kg/m3
same,mass density,"323.15 K, 70000 kPa",1710.9 ± 2.4 kg/m3
same,speed of sound,"323.15 K, 80000 kPa",945.6 ± 2 m/s
same,mass density,"323.15 K, 80000 kPa",1724.2 ± 2.7 kg/m3
same,mass density,"323.15 K, 90000 kPa",1736.8 ± 3 kg/m3
same,speed of sound,"323.15 K, 100000 kPa",1004.9 ± 2.2 m/s
same,mass density,"323.15 K, 100000 kPa",1748.7 ± 3.4 kg/m3
same,mass density,"323.15 K, 110000 kPa",1760 ± 3.7 kg/m3
same,mass density,"323.15 K, 120000 kPa",1770.6 ± 4.1 kg/m3
same,mass density,"323.15 K, 130000 kPa",1780.7 ± 4.4 kg/m3
same,mass density,"323.15 K, 140000 kPa",1790.5 ± 4.8 kg/m3
same,speed of sound,"333.15 K, 100 kPa",561.4 ± 1.4 m/s
same,mass density,"333.15 K, 100 kPa",1545.6 ± 0.7 kg/m3
same,mass density,"333.15 K, 10000 kPa",1578.4 ± 0.8 kg/m3
same,speed of sound,"333.15 K, 20000 kPa",688.4 ± 1.6 m/s
same,mass density,"333.15 K, 20000 kPa",1605.3 ± 1 kg/m3
same,mass density,"333.15 K, 30000 kPa",1628.1 ± 1.2 kg/m3
same,speed of sound,"333.15 K, 40000 kPa",783.3 ± 1.7 m/s
same,mass density,"333.15 K, 40000 kPa",1648.2 ± 1.5 kg/m3
same,mass density,"333.15 K, 50000 kPa",1666.2 ± 1.7 kg/m3
same,speed of sound,"333.15 K, 60000 kPa",861.5 ± 1.9 m/s
same,mass density,"333.15 K, 60000 kPa",1682.6 ± 2 kg/m3
same,mass density,"333.15 K, 70000 kPa",1697.7 ± 2.3 kg/m3
same,speed of sound,"333.15 K, 80000 kPa",929.1 ± 2 m/s
same,mass density,"333.15 K, 80000 kPa",1711.6 ± 2.7 kg/m3
same,mass density,"333.15 K, 90000 kPa",1724.6 ± 3 kg/m3
same,speed of sound,"333.15 K, 100000 kPa",989.3 ± 2.1 m/s
same,mass density,"333.15 K, 100000 kPa",1736.9 ± 3.3 kg/m3
same,mass density,"333.15 K, 110000 kPa",1748.2 ± 3.7 kg/m3
same,mass density,"333.15 K, 120000 kPa",1759.3 ± 4 kg/m3

# Reference: the NIST ThermoML archive (doi:10.1016/j.jct.2017.04.007)
